According to patent US20220160762A1, “ENGINEERED IMMUNE CELLS” (NATIONAL UNIVERSITY OF SINGAPORE, priority 2019, published 2022):

Assays:
TCR-Jurkat = test: T cell stimulation assay with kinase inhibitor, IL-2 ELISA readout; type: cell-based; conditions: Homo sapiens, TCR-Jurkat stimulated with CHO-L2, 18 hrs, read-out: IC50 of inhibitor on IL-2 production
Experimental: (§1) Artificial antigen presenting CHO cells (APC-CHO) were seeded onto a 96 well flat plate at 2-3×10^4 per well one day before. For APC-CHO requiring peptide pulsing, peptide was added at 4 uM for 3 hrs, and then washed away before CAR-T or TCR-T cells were added. Each CAR-T cell or TCR T cell sample was counted and suspended at a concentration of 10^6 per ml in culturing RPMI medium. 200 ul per well of suspended cell solution was then added into APC-CHO pre-seeded plate. For inhibitor experiments, inhibitor was added accordingly into the cell mixture. Technical triplicates were performed for all experiments. The cells were incubated at 37° C., 5% CO2 for 18 hrs. After incubation, supernatant was collected for human IL-2 ELISA assay, which was performed according to the manufacturer's protocol (Invitrogen). The T cell pellets were resuspended for surface staining or used for another round of stimulation by repeating the method described above.

CAR-Jurkat = test: as above; type: cell-based, human; conditions: for IC50: Homo sapiens, T-cell, CAR-Jurkat stimulated with CHO-L2, 18 hrs, read-out: IC50 of inhibitor on IL-2 production
Experimental: as §1

CAR-Jcam = test: T cell stimulation assay with SFK inhibitor, IL-2 ELISA readout; type: cell-based, human; conditions: CAR-Jcam (LCK-deficient)
Experimental: as §1

SMILES | IC50 (TCR-Jurkat) [nM] | IC50 (CAR-Jurkat) [nM] | IL-2 production after inhibitor was added (CAR-Jcam) | IL-2 production after inhibitor was added (CAR-Jurkat; CAR-Jurkat)
COc1cc(-c2nn([C@H]3CC[C@H](N4CCN(C(C)=O)CC4)CC3)c3ncnc(N)c23)ccc1NC(=O)c1cc2ccccc2n1C [A770041] | 6.6 | 47 | – | –
CC(C)(C)n1nc(-c2ccc(Cl)cc2)c2c(N)ncnc21 [PP2] | – | – | entirely quenched | entirely quenched
CN(C)S(=O)(=O)c1ccc2c(c1)/C(=C/c1cc3c([nH]1)CCCC3)C(=O)N2 [SU6656] | 5580 | 3760 | – | –
